Reference: US20090030058A1, “TOSYLATE SALT OF 6- (4-BR0M0-2-CHL0R0PHENYLAMIN0) -7-FLUORO-N- (2-HYDROXYETHOXY) -3-METHYL-3H-BENZIMI DAZOLE- 5 - CARBOXAMIDE , MEK INHIBITOR USEFUL IN THE TREATMENT OF CANCER” (priority 2005, published 2009)
Entries after “also recorded” stand apart in the source; their conditions may differ. Counter-ions that a name gives are not always drawn.

Tests used:
[1] = tested on: constitutively active MEK1 (2-393); experiment: MEK1 kinase assay (33P incorporation onto ERK2); format: biochemical
Protocol: N-terminal 6 His-tagged, constitutively active MEK1 (2-393) is expressed in E. coli and protein is purified by conventional methods (Ahn et al., Science 1994, 265, 966-970). The activity of MEK1 is assessed by measuring the incorporation of γ-^33P-phosphate from γ-^33P-ATP onto N-terminal His tagged ERK2, which is expressed in E. coli and is purified by conventional methods, in the presence of MEK1. The assay is carried out in 96-well polypropylene plate. The incubation mixture (100 μL) comprises of 25 mM Hepes, pH 7.4, 10 mM MgCl2, 5 mM β-glycerolphosphate, 100 μM sodium orthovanadate, 5 mM DTT, 5 nM MEK1, and 1 μM ERK2. Inhibitors are suspended in DMSO, and all reactions, including controls are performed at a final concentration of 1% DMSO. Reactions are initiated by the addition of 10 μM ATP (with 0.5 μCi γ-^33P-ATP/well) and incubated at ambient temperature for 45 minutes. Equal volume of 25% TCA is added to stop the reaction and precipitate the proteins. Precipitated proteins are trapped onto glass fiber B filterplates, and excess labeled ATP washed off using a Tomtec MACH III harvestor. Plates are allowed to air-dry prior to adding 30 μL/well of Packard Microscint 20, and plates are counted using a Packard TopCount.

[2] = Solubility in various media (amount dissolved after stirring with excess solid); format: physicochemical
Protocol: Due to the observation of the tosylate salt remaining as the salt form in solution, further investigations were performed to probe the solubility of the salts in various media. The amounts dissolved (mg/mL) in the various media after stirring either the Compound 1 free base or the Compound 1 tosylate salt with excess solid for 10 minutes and 60 minutes are shown in Table 4 (SIF=Simulated intestinal fluid; FaSIF=Fasted Simulated Intestinal Fluid).

[3] = Percent dissolution after 1 hour, tablet and powder form; format: physicochemical
Protocol: Dissolution of the free base of Compound 1 as well as the tosylate salt of Compound 1 was investigated at the 1 hour time point in both tablet form and powder form. The dissolution rate of the tosylate salt was generally much higher than that of the free base.

[4] = Intrinsic and powder dissolution rate (pH 6.5); format: physicochemical
Protocol: In order to investigate the effects of salts on the release rate, an intrinsic dissolution (pH 6.5) was performed.

[5] = Disproportionation study, slurry in pH 6.5 buffer, XRPD; format: physicochemical; settings: for disproportionation of the salt to the free base in buffer: suspension/slurry in pH 6.5 buffer, XRPD, p-toluenesulfonate
Protocol: The characteristics of the salts in liquids were investigated by slurrying the material in a range of solvents including a buffer of pH 6.5 to simulate physiological conditions.
Compound 1 tosylate salt was slurried in pH 6.5 buffer at room temperature at a concentration of 100 mg in 2 mL. Samples were taken at 15 minute intervals up to 120 minutes.
In order to prepare the pH 6.5 slurry of Compound 1 tosylate salt, a buffer was first prepared by producing a first solution (Solution A) by adding 90.8 mg of potassium dihydrogen phosphate to a conical 100 mL flask. Deionised water was added to mark ensuring all solid had dissolved. A second solution (Solution B) was prepared by adding 118.8 mg of disodium hydrogen phosphate to a conical 100 mL flask and deionised water was added to mark ensuring all solid had dissolved. Then 64 mL of solution A was mixed with 32 mL of solution B to form a pH 6.5 buffer
The slurry was prepared by adding 100 mg of Compound 1 tosylate to a 10 mL vial and to this was added 2 mL of the pH 6.5 buffer (prepared above), a magnetic stir bar was added and vial placed on a magnetic stirrer. Small aliquots of the suspension were removed after 15 minutes, 30 minutes, 45 minutes, 60 minutes and 120 minutes and each sample was placed on a metal plate on the D8 Diffractometer and an XRPD pattern determined immediately. The results after 0, 15 and 60 minutes are shown in FIGS. 7, 8 and 9, respectively.

[6] = Solid state storage stability (disproportionation); format: physicochemical; settings: 3 months storage at 40° C. and 5% relative humidity
[7] = Particle size reduction (milling, micronisation), PXRD; format: physicochemical; settings: pestle and mortar 10 minutes or spiral jet mill, listed as tosylate salt, p-toluenesulfonate
Protocol: In order to investigate the potential for the materials to become amorphous during particle size reduction procedures, batches of the material were milled either by grinding the material in a pestle and mortar for 10 minutes or by micronising using conventional micronising equipment, in this case, a 2″ Spiral jet mill manufactured by Gravesend engineering. The products were subjected to PXRD as described in Example 4 above.

[8] = Dog study, plasma levels of Compound 1 after oral tablets; format: in vivo, Alderley Park Beagle Dogs; settings: fasted dogs, 50 mg or 150 mg fbe
Protocol: A dog study was performed to measure plasma levels of Compound 1 in fasted dogs following oral administration of 50 mg free base equivalent (fbe) doses in tablets of the free base and the tosylate salt (form 2 of the 1:1 stoichiometric salt), and 150 mg fbe as 3×50 mg tablets of the tosylate salt.
Tablets of Compound 1 were manufactured using a standard direct compression process. Three batches were made containing Compound 1 free base or Compound 1 tosylate as the active pharmaceutical ingredient (API). The generic formulation contained API (12.5% w/w), fast flo lactose (72.0% w/w), Avicel PH102 (10.0% w/w), AcDiSol (4.0% w/w), sodium lauryl sulfate (0.5% w/w) and magnesium stearate (1.0% w/w). The required quantity of each formulation component, excluding magnesium stearate, was weighed and charged to a mixing vessel. The powders were then mixed for 30 minutes using a tumble blender. The powder mix was then sieved through a 425 μm sieve before being mixed for a further 15 minutes using the tumble blender. […] The required quantity of powder mix for each tablet was weighed individually and charged to the die before being compressed manually using a hand-operated press. […]
Dogs were fed about 400 g of Harlan Teklad 2021 each day and allowed water ad libitum. […] Plasma (50 mcL) was analysed for Compound 1 concentration.

[9] = Relative stability of polymorphs; format: physicochemical; settings: 1:1 anhydrous salt

Cn1cnc2c(F)c(Nc3ccc(Br)cc3Cl)c(C(=O)NOCCO)cc21 [Compound 1, 6-(4-bromo-2-chloro-phenylamino)-7-fluoro-3-methyl-3H-benzoimidazole-5-carboxylic acid (2-hydroxy-ethoxy)-amide]
activity in MEK1 assay [1]: activity
amount dissolved ([2]; FaSSIF, 10 min, listed as Compound 1 free base): 0.01 mg/mL
amount dissolved ([2]; FaSSIF, 60 min, listed as Compound 1 free base): 0.01 mg/mL
amount dissolved ([2]; H2O, 10 min, listed as Compound 1 free base): 0.004 mg/mL
amount dissolved ([2]; SIF pH 6.5, 10 min, listed as Compound 1 free base): 0.004 mg/mL
amount dissolved ([2]; SIF pH 6.5, 60 min, listed as Compound 1 free base): 0.004 mg/mL
amount dissolved ([2]; Sorenson's buffer, 10 min, listed as Compound 1 free base): 0.004 mg/mL
amount dissolved ([2]; Sorenson's buffer, 60 min, listed as Compound 1 free base): 0.004 mg/mL
amount dissolved ([2]; pH 1.2, 10 min, listed as Compound 1 free base): 0.14 mg/mL
amount dissolved ([2]; pH 1.2, 60 min, listed as Compound 1 free base): 0.13 mg/mL
percent dissolution after 1 hour ([3]; FaSSIF, 50 mg (fbe) tablets, listed as Compound 1 Free base): 4.54%
percent dissolution after 1 hour ([3]; FaSSIF, powder, listed as Compound 1 Free base): 4.49%
percent dissolution after 1 hour ([3]; SIF pH 6.5, 50 mg (fbe) tablets, listed as Compound 1 Free base): 2.61%
percent dissolution after 1 hour ([3]; SIF pH 6.5, powder, listed as Compound 1 Free base): 2.36%

Cn1cnc2c(F)c(Nc3ccc(Br)cc3Cl)c(C(=O)NOCCO)cc21 [Compound 1 tosylate, 6-(4-bromo-2-chloro-phenylamino)-7-fluoro-3-methyl-3H-benzoimidazole-5-carboxylic acid (2-hydroxy-ethoxy)-amide p-toluenesulfonate]
amount dissolved ([2]; FaSSIF, 10 min, p-toluenesulfonate): 0.19 mg/mL
amount dissolved ([2]; FaSSIF, 60 min, p-toluenesulfonate): 0.04 mg/mL
amount dissolved ([2]; H2O, 10 min, p-toluenesulfonate): 0.058 mg/mL
amount dissolved ([2]; SIF pH 6.5, 10 min, p-toluenesulfonate): 0.041 mg/mL
amount dissolved ([2]; SIF pH 6.5, 60 min, p-toluenesulfonate): 0.020 mg/mL
amount dissolved ([2]; Sorenson's buffer, 10 min, p-toluenesulfonate): 0.019 mg/mL
amount dissolved ([2]; Sorenson's buffer, 60 min, p-toluenesulfonate): 0.007 mg/mL
amount dissolved ([2]; pH 1.2, 10 min, p-toluenesulfonate): 0.41 mg/mL
amount dissolved ([2]; pH 1.2, 60 min, p-toluenesulfonate): 0.19 mg/mL
percent dissolution after 1 hour ([3]; FaSSIF, 50 mg (fbe) tablets, p-toluenesulfonate): 23.05%
percent dissolution after 1 hour ([3]; FaSSIF, powder, p-toluenesulfonate): 31.48%
percent dissolution after 1 hour ([3]; SIF pH 6.5, 50 mg (fbe) tablets, p-toluenesulfonate): 6.66%
percent dissolution after 1 hour ([3]; SIF pH 6.5, powder, p-toluenesulfonate): 5.16%
intrinsic dissolution rate relative to the free base [4]: comparable to that of the free base
powder dissolution rate relative to the free base [4]: 60 times
time the salt remains present in the slurry ([5]; pH 6.5 buffer, room temperature, 100 mg in 2 mL): up to 75 minutes
disproportionation of the salt to the free base in buffer ([5]; listed as Compound 1 tosylate salt): a small amount of free base is produced after 15 minutes
disproportionation of the salt to the free base in buffer [5]: little disproportionation
disproportionation in the solid state [6]: no disproportionation
resistance to becoming amorphous on milling and micronisation [7]: highly resistant to becoming amorphous; also recorded: unique resistance to becoming amorphous
exposure (plasma Compound 1) versus free base [8]: substantial increase in exposure

Cn1cnc2c(F)c(Nc3ccc(Br)cc3Cl)c(C(=O)NOCCO)cc21 [Form 2, 6-(4-bromo-2-chloro-phenylamino)-7-fluoro-3-methyl-3H-benzoimidazole-5-carboxylic acid (2-hydroxy-ethoxy)-amide p-toluenesulfonate]
disproportionation of the salt to the free base in buffer [5]: some kinetic resistance to disproportionate
stability relative to the other polymorph [9]: more stable than the salt in the form of the polymorph Form 1
